Data as given in patent publication US20090041687A1 (priority 2005, published 2009).
Structures can show the parent of a compound that is named as a salt.

The compounds below were run on human primary melanocytes from skin type IV (assay: total intracellular melanin production in human primary melanocytes (depigmentation)). Settings: Naloxone 1 × 10^−4 M, 4 days, absorption of cell lysates at 475 nm, duplicate.
Format: cell-based
Protocol: Normal human melanocytes were cultured from freshly excised foreskin of skin type IV and treated with Dispase (ready-to-use, Roche) overnight at 4° C. Melanocytes dissociated from the epidermis were plated in culture flasks at high density using Melanocyte Growth Medium M2 (Promocell) supplemented with the corresponding growth factors (Promocell). These primary cells were cultivated under 100% humidity and 5% CO2 at 37° C. At the second passage, melanocytes were transferred to 6 well plates and allowed to reach 80% surface confluence.
Medium was renewed on day two of the experiment. Cells were harvested, counted and lysed in 1N NaOH using vigorous vortexing and a 30 minute incubation in an ultrasound bath. Melanin content was determined by measuring the absorption of cell lysates at 475 nm. Values were calibrated against a standard curve based on synthetic melanin (Sigma). The amount of melanin per 1 million cells is reported. Each treatment was run in duplicate.

SMILES | Melanin (μg/10^6 cells)
C=CCN1CC[C@]23c4c5ccc(O)c4O[C@H]2C(=O)CC[C@@]3(O)[C@H]1C5 [Naloxone] | 1.05 μg/10^6 cells

Same assay, conditions: Naloxone 1 × 10^−4 M, 4 days, versus control

SMILES | Reduction of mean melanin content
C=CCN1CC[C@]23c4c5ccc(O)c4O[C@H]2C(=O)CC[C@@]3(O)[C@H]1C5 [Naloxone] | 86%

Same assay, conditions: Naloxone 5 × 10^−6 M, 4 days, versus control

SMILES | Reduction of mean melanin content
C=CCN1CC[C@]23c4c5ccc(O)c4O[C@H]2C(=O)CC[C@@]3(O)[C@H]1C5 [Naloxone] | 78%

Same assay, conditions: result in words

SMILES | intracellular melanin content compared to the control
C=CCN1CC[C@]23c4c5ccc(O)c4O[C@H]2C(=O)CC[C@@]3(O)[C@H]1C5 [Naloxone] | dramatically reduces intracellular melanin content

The compounds below were run against T1, μ-opioid receptor (Homo sapiens, UniProt P35372) (assay: μ-opioid receptor binding assay and GTP-recruitment assay (screening for antagonists)). Settings: [3H] DAMGO binding and DAMGO/GTP-Eu recruitment, membranes from CHO cells overexpressing the receptor; result in words.
T1 construct: purchased Perkin Elmer; host or cells: CHO cells (recombinant overexpression; membrane preparation)
T1 sequence (P35372 whole entry): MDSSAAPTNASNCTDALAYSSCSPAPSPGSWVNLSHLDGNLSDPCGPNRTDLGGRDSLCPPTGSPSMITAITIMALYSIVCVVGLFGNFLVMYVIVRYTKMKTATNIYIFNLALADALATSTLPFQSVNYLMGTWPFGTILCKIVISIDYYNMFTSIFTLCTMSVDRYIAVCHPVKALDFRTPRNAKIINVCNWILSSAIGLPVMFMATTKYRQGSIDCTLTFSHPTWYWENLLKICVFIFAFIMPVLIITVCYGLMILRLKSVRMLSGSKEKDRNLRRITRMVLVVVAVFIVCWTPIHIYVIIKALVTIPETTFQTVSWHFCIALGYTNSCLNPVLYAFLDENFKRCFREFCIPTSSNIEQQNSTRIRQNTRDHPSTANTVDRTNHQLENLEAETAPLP
Format: biochemical
Protocol: […] DAMGO (Amersham) in 50 mM Tris HCl pH 7.4 (Sigma), 10 mM MgCl2 (Sigma) and 0.2% BSA (Sigma) in the presence of the negative control DMSO (Fluka) or the test compounds. The incubation mixture was transferred to filter plates (Perkin Elmer), the liquid aspirated through the application of a vacuum from the bottom and the plate washed twice with PBS (Invitrogen). The plate was allowed to dry, 35 μl of scintillation cocktail (Ultima Gold, Perkin Elmer) added, sealed and placed on a TopCount (Packard) for scintillation counting.
[…] The incubation mixture was transferred to filter plates (Perkin Elmer), the liquid aspirated through the application of a vacuum from the bottom and the plate washed twice with PBS (Invitrogen) and allowed to dry. Plates were read in an Analyst reader (LJL Biosystems).

SMILES | identified as opioid receptor antagonist in the screening
COC1=C(OC)C(=O)C=CC1=O [2,3-Dimethoxy-1,4-benzoquinone] | opioid receptor antagonists
COC1=C(OC)C(=O)C(C)=CC1=O [2,3-Dimethoxy-5-methyl-1,4-benzoquinone] | opioid receptor antagonists
COc1c(O)cc(C)c(O)c1OC [2,3-Dimethoxy-5-methylhydroquinone] | opioid receptor antagonists
COc1c(O)ccc(O)c1OC [2,3-Dimethoxyhydroquinone] | opioid receptor antagonists
O=C(/C=C/c1ccc(O)c(O)c1)c1ccc(O)c(O)c1O [2′,3′,4′,3,4-Pentahydroxychalcone] | opioid receptor antagonists
O=C1/C(=C/c2ccc(O)c(O)c2)Oc2cc(O)cc(O)c21 [Aureusidin] | opioid receptor antagonists
Oc1cc(O)c2cc(O)c(-c3cc(O)c(O)c(O)c3)[o+]c2c1 [Delphinidin chloride] | opioid receptor antagonists
O=C(Oc1cc(O)cc2c1C[C@@H](OC(=O)c1cc(O)c(O)c(O)c1)[C@@H](c1cc(O)c(O)c(O)c1)O2)c1cc(O)c(O)c(O)c1 [Epigallocatechin 3,5-Digallate] | opioid receptor antagonists
CC(=O)Oc1cc(-c2coc3cc(OC(C)=O)c(OC(C)=O)c(OC(C)=O)c3c2=O)cc(OC(C)=O)c1OC(C)=O [Irigenol Hexaacetate] | opioid receptor antagonists
O=c1c(-c2cc(O)c(O)c(O)c2)coc2cc(O)c(O)c(O)c12 [Irigenol ex Iris spp] | opioid receptor antagonists
C/C1=C\CCC(C)(O)/C=C/C(C(C)C)CC/C(C)=C/CC1 (stereo not shown) [Isocembrol] | opioid receptor antagonists
O=c1c(O)c(-c2ccc(O)c(O)c2)oc2cc(O)c(O)c(O)c12 [Quercetagetin] | opioid receptor antagonists
O=c1c(O)c(-c2cc(O)c(O)c(O)c2)oc2cc(O)ccc12 [Robinetin] | opioid receptor antagonists
CC(C)=CCC(OC(=O)C=C(C)C)C1=CC(=O)c2c(O)ccc(O)c2C1=O (stereo not drawn) [beta,beta-Dimethylacryl shikonin] | opioid receptor antagonists

Same assay, conditions: [3H] DAMGO binding and DAMGO/GTP-Eu recruitment, membranes from CHO cells overexpressing the receptor; result in words; Hydrochloride

SMILES | identified as opioid receptor antagonist in the screening
COc1cc2c3cc1Oc1c(OC)c(OC)cc4c1[C@@H](Cc1cccc(c1)Oc1ccc(c(O)c1)C[C@@H]3N(C)CC2)N(C)CC4 [Berbamine Hydrochloride] | opioid receptor antagonists
